{"source": "patent US8852618B2", "about": "“Insecticidal mixture containing gamma-cyhalothrin” (Syngenta Limited, priority 2001, dated 2014)", "key": {"Heliothis virescens": {"system": "Heliothis virescens", "assay": "Sprayed cotton leaf test, mortality of 1st instar larvae after 3 days", "method": "(§1) For Heliothis and Spodoptera testing cotton leaves were sprayed in a Berkhard Potter Tower, left to dry for 1 hour and then placed on the top of pots containing twenty 1st instar Heliothis virescens/Spodoptera littoralis larvae. These were stored in a test holding room at 25° C. for 3 days and the test species assessed for mortality. For aphid testing Leaf discs were cut from excised Chinese cabbage leaves and placed on agar in test pots. R2 Myzus persicae were transferred from the culture on radish cotyledons and left overnight. The dried cotyledons were removed, leaving approximately 20-25 aphids on each leaf disc. The pots were sprayed in a Berkhard Potter Tower. Once dry, ventilated lids were placed on the top. These were stored in a Weiss Room at 20° C. for 3 days and the test species assessed for mortality. All tests included a Synperonic NP8 control. […] Any increase in the expected amount of mortality may be attributed to synergism. This is calculated in the following way: Expected mortality from mixture=% mortality of mixture partner A+(100%−% mortality of A)*(% mortality of mixture partner B). The results are set out in Tables I-III."}, "Spodoptera littoralis": {"system": "Spodoptera littoralis", "assay": "Sprayed cotton leaf test, mortality of 1st instar larvae after 3 days", "details": "for Observed % mortality Other ai: 3 days", "method": "as §1"}, "Myzus persicae": {"system": "Myzus persicae", "assay": "Sprayed Chinese cabbage leaf disc aphid test, mortality after 3 days", "details": "in Brassica rapa, foliar, 72 h", "method": "as §1"}, "[1]": {"details": "read-out: Observed % mortality Other"}, "[2]": {"details": "Spodoptera littoralis, in Gossypium hirsutum, 72 h, read-out: Observed % mortality Gamma"}, "[3]": {"details": "read-out: Observed % mortality Gamma"}}, "note": "Values joined by “and” are separate entries in the source; they are usually repeats but may differ in a detail not shown here. Equal values may be shown once. Read-outs that look alike come from different tables or passages of the source."}
{"compound": "abamectin", "values": [{"measurement": "Observed % mortality Other ai", "setting": "Heliothis virescens; other ai alone 0.25 ppm", "value": 0, "unit": "%"}, {"measurement": "Observed % mortality Other ai", "setting": "Heliothis virescens; other ai alone 0.50 ppm", "value": 0, "unit": "%"}, {"measurement": "Observed % mortality Other ai", "setting": "Heliothis virescens; other ai alone 1.00 ppm", "value": 0, "unit": "%"}]}
{"compound": "CCOP(=S)(OCC)Oc1nc(Cl)c(Cl)cc1Cl", "note": "[Chlorpyrifos, chlorpyrifos]", "values": [{"measurement": "mortality at 2.5 ppm", "setting": "Heliothis virescens; Heliothis virescens, in Gossypium hirsutum, 72 h, read-out: Observed % mortality Other ai, other ai alone 2.50 ppm", "value": 36, "unit": "%"}, {"measurement": "mortality at 5 ppm", "setting": "Heliothis virescens; Heliothis virescens, in Gossypium hirsutum, 72 h, read-out: Observed % mortality Other ai, other ai alone 5.00 ppm", "value": 29, "unit": "%"}, {"measurement": "mortality at 10 ppm", "setting": "Heliothis virescens; Heliothis virescens, in Gossypium hirsutum, 72 h, read-out: Observed % mortality Other ai, other ai alone 10.00 ppm", "value": 44, "unit": "%"}]}
{"compound": "emamectin benzoate", "values": [{"measurement": "Observed % mortality Other ai", "setting": "Spodoptera littoralis; other ai alone 0.0025 ppm", "value": 0, "unit": "%"}, {"measurement": "Observed % mortality Other ai", "setting": "Spodoptera littoralis; other ai alone 0.005 ppm", "value": 6, "unit": "%"}, {"measurement": "Observed % mortality Other ai", "setting": "Spodoptera littoralis; other ai alone 0.01 ppm", "value": 0, "unit": "%"}, {"measurement": "Observed % mortality Other ai", "setting": "Heliothis virescens; other ai alone 0.13 ppm", "value": "97% and 96%"}, {"measurement": "Observed % mortality Other ai", "setting": "Heliothis virescens; other ai alone 0.25 ppm", "value": "97% and 96% and 99%"}, {"measurement": "Observed % mortality Other ai", "setting": "Heliothis virescens; other ai alone 0.50 ppm", "value": "96% and 99%"}]}
{"compound": "COC(=O)N(C(=O)N1CO[C@@]2(C(=O)OC)Cc3cc(Cl)ccc3C2=N1)c1ccc(OC(F)(F)F)cc1", "note": "[Indoxacarb]", "values": [{"measurement": "Observed % mortality Other ai", "setting": "Heliothis virescens; other ai alone 0.20 ppm", "value": "26% and 22%"}, {"measurement": "Observed % mortality Other ai", "setting": "Heliothis virescens; other ai alone 0.80 ppm", "value": "26% and 46%"}]}
{"compound": "CN1COCN(Cc2cnc(Cl)s2)/C1=N\\[N+](=O)[O-]", "note": "[Thiamethoxam, thiamethoxam]", "values": [{"measurement": "mortality at 1.25 ppm", "setting": "Myzus persicae; [1]", "value": 70, "unit": "%"}, {"measurement": "mortality at 2.5 ppm", "setting": "Myzus persicae; [1]", "value": 92, "unit": "%"}, {"measurement": "mortality at 5 ppm", "setting": "Myzus persicae; [1]", "value": 94, "unit": "%"}]}
{"compound": "CC1(C)[C@H](C(=O)O[C@H](C#N)c2cccc(Oc3ccccc3)c2)[C@@H]1/C=C(\\Cl)C(F)(F)F", "note": "[Gamma, (S)-α-cyano-3-phenoxybenzyl (Z)-(1R,3R)-3-(2-chloro-3,3,3-trifluoro-1-propenyl)-2,2-dimethylcyclopropanecarboxylate]", "values": [{"measurement": "mortality at 0.025 ppm", "setting": "Spodoptera littoralis; [2]", "value": 0, "unit": "%"}, {"measurement": "mortality at 0.05 ppm", "setting": "Spodoptera littoralis; [2]", "value": 25, "unit": "%"}, {"measurement": "mortality at 0.1 ppm", "setting": "Spodoptera littoralis; [2]", "value": 90, "unit": "%"}, {"measurement": "Observed % mortality Gamma", "setting": "Heliothis virescens; Gamma alone 0.25 ppm", "value": 28, "unit": "%"}, {"measurement": "Observed % mortality Gamma", "setting": "Heliothis virescens; Gamma alone 0.50 ppm", "value": 28, "unit": "%"}, {"measurement": "Observed % mortality Gamma", "setting": "Heliothis virescens; Gamma alone 1.00 ppm", "value": 28, "unit": "%"}, {"measurement": "mortality at 0.25 ppm", "setting": "Heliothis virescens; Heliothis virescens, in Gossypium hirsutum, 72 h, read-out: Observed % mortality Gamma, Gamma alone 0.25 ppm", "value": 32, "unit": "%"}, {"measurement": "mortality at 0.5 ppm", "setting": "Heliothis virescens; Heliothis virescens, in Gossypium hirsutum, 72 h, read-out: Observed % mortality Gamma, Gamma alone 0.50 ppm", "value": 32, "unit": "%"}, {"measurement": "mortality at 1 ppm", "setting": "Heliothis virescens; Heliothis virescens, in Gossypium hirsutum, 72 h, read-out: Observed % mortality Gamma, Gamma alone 1.00 ppm", "value": 46, "unit": "%"}, {"measurement": "mortality at 0.25 ppm", "setting": "Myzus persicae; [3]", "value": 70, "unit": "%"}, {"measurement": "mortality at 0.5 ppm", "setting": "Myzus persicae; [3]", "value": 69, "unit": "%"}, {"measurement": "mortality at 1 ppm", "setting": "Myzus persicae; [3]", "value": 98, "unit": "%"}]}
{"compound": "CC1(C)[C@H](C(=O)O[C@H](C#N)c2cccc(Oc3ccccc3)c2)[C@@H]1/C=C(\\Cl)C(F)(F)F", "note": "(racemic) [Lambda-cyhalothrin, lambda-cyhalothrin]", "values": [{"measurement": "mortality at 0.25 ppm", "setting": "Heliothis virescens; Heliothis virescens, in Gossypium hirsutum, 72 h, read-out: Observed % mortality Other ai, other ai alone 0.25 ppm", "value": 46, "unit": "%"}, {"measurement": "mortality at 0.5 ppm", "setting": "Heliothis virescens; Heliothis virescens, in Gossypium hirsutum, 72 h, read-out: Observed % mortality Other ai, other ai alone 0.50 ppm", "value": 50, "unit": "%"}, {"measurement": "mortality at 1 ppm", "setting": "Heliothis virescens; Heliothis virescens, in Gossypium hirsutum, 72 h, read-out: Observed % mortality Other ai, other ai alone 1.00 ppm", "value": 46, "unit": "%"}, {"measurement": "Observed % mortality Other ai", "setting": "Heliothis virescens; other ai alone 0.50 ppm", "value": 52, "unit": "%"}, {"measurement": "Observed % mortality Other ai", "setting": "Heliothis virescens; other ai alone 1.00 ppm", "value": 52, "unit": "%"}, {"measurement": "mortality at 0.125 ppm", "setting": "Myzus persicae; [1]", "value": 10, "unit": "%"}, {"measurement": "mortality at 0.25 ppm", "setting": "Myzus persicae; [1]", "value": 4, "unit": "%"}, {"measurement": "mortality at 0.5 ppm", "setting": "Myzus persicae; [1]", "value": 14, "unit": "%"}]}
